Experimental data taken from ChEMBL document CHEMBL1201862, “PubChem BioAssay data set” (2004).
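Each compound was tested at five concentrations against cells in 96-well plates for 48 hours. GI50 = concentration required for 50% inhibition of growth.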 Active and inactive are the calls of the source. No stated cut-off is given here; in the data, active = GI50 up to about 1.1 µM and inactive = higher.

Assays:
Experiment in all cases: NCI-60 cell line screen, 48 h
[1] = tested on: 786-0
[2] = tested on: A549
[3] = tested on: COLO 205
[4] = tested on: DU-145
[5] = tested on: HOP-62
[6] = tested on: LOX IMVI
[7] = tested on: MCF7
[8] = tested on: MDA-MB-435
[9] = tested on: MDA-N
[10] = tested on: NCI-H23
[11] = tested on: NCI-H522
[12] = tested on: OVCAR-4
[13] = tested on: OVCAR-8
[14] = tested on: RPMI-8226
[15] = tested on: SK-MEL-28
[16] = tested on: SR
[17] = tested on: T47D
[18] = tested on: U-251
[19] = tested on: UO-31
[20] = tested on: Malme-3M

Measured: GI50

CC(C)(C)N(Cc1ccc2c(c1)OCO2)C(=O)/C=C\Sc1ccccc1
inactive: [1] > 100 µM | [2] 47 µM | [3] 45.1 µM | [4] > 100 µM | [5] > 100 µM | [6] 77.8 µM | [7] 51.8 µM | [8] 25.8 µM | [9] 19.5 µM | [10] > 100 µM | [11] 6.98 µM | [12] 77.8 µM | [13] > 100 µM | [14] 30.3 µM | [15] > 100 µM | [16] 4.44 µM | [17] 21.4 µM | [18] 63.7 µM | [19] 43 µM

Cn1c(=O)c2c(nc3sc4ncccc4c(=O)n32)n(C)c1=O
inactive: [1] > 100 µM | [3] > 100 µM | [4] > 100 µM | [5] > 100 µM | [6] > 100 µM | [7] > 100 µM | [8] > 100 µM | [9] > 100 µM | [10] > 100 µM | [12] > 100 µM | [13] > 100 µM | [14] > 100 µM | [15] > 100 µM | [17] > 100 µM | [18] > 100 µM | [19] 81.1 µM

CC(NNC(=O)c1ccncc1)c1ccc(F)cc1 (stereo unspecified)
inactive: [1] > 100 µM | [2] > 100 µM | [3] > 100 µM | [4] > 100 µM | [5] > 100 µM | [6] > 100 µM | [7] > 100 µM | [8] > 100 µM | [9] > 100 µM | [20] > 100 µM | [10] > 100 µM | [11] > 100 µM | [12] > 100 µM | [13] > 100 µM | [15] > 100 µM | [17] > 100 µM | [18] > 100 µM | [19] > 100 µM

O=C(O)C(=Cc1ccnc2ccccc12)C(=O)O
inactive: [1] > 100 µM | [2] > 100 µM | [3] > 100 µM | [4] > 100 µM | [5] > 100 µM | [6] > 100 µM | [7] > 100 µM | [9] > 100 µM | [20] > 100 µM | [10] > 100 µM | [11] > 100 µM | [13] > 100 µM | [14] > 100 µM | [15] > 100 µM | [16] > 100 µM | [17] > 100 µM | [18] > 100 µM

O=[N+]([O-])/C(C(Cl)=C(Cl)Cl)=C(\Nc1cccc2ccccc12)n1nnc2ccccc21
inactive: [1] > 100 µM | [2] 77.3 µM | [3] 21.5 µM | [4] > 100 µM | [5] 32.4 µM | [6] 35.4 µM | [7] 41.5 µM | [8] 53.7 µM | [9] > 100 µM | [20] 68.5 µM | [10] 37.6 µM | [12] 33.3 µM | [13] 73.6 µM | [14] 23.3 µM | [15] > 100 µM | [17] > 100 µM | [18] 33 µM | [19] 98.4 µM

n1onc2c1NC1Nc3nonc3NC1N2 (stereo unspecified)
inactive: [1] > 100 µM | [2] > 100 µM | [3] > 100 µM | [4] > 100 µM | [5] > 100 µM | [6] > 100 µM | [7] > 100 µM | [8] > 100 µM | [9] > 100 µM | [10] > 100 µM | [11] > 100 µM | [12] > 100 µM | [13] > 100 µM | [14] > 100 µM | [15] > 100 µM | [17] > 100 µM | [18] > 100 µM | [19] > 100 µM

O=C(/N=N/c1cccc(Cl)c1)NNc1cccc(Cl)c1
inactive: [1] 15.1 µM | [2] 24.5 µM | [4] 17.5 µM | [5] 5.3 µM | [6] 12.9 µM | [8] 11.5 µM | [9] 13.1 µM | [20] 16.7 µM | [10] 26.2 µM | [11] 21.9 µM | [12] 10.3 µM | [13] 17.3 µM | [14] 8.36 µM | [15] 20.1 µM | [16] 13.8 µM | [17] 10.8 µM | [18] 18.7 µM | [19] 8.49 µM

COc1ccc(/C=N/c2ccc(-c3nc4ccccc4s3)cc2)cc1OC
inactive: [1] 19 µM | [2] 36.5 µM | [3] 19.3 µM | [4] 38.3 µM | [5] 10.9 µM | [6] 21.8 µM | [8] 33.3 µM | [9] 30.9 µM | [20] 30 µM | [10] 27.1 µM | [11] 16.7 µM | [12] 34.3 µM | [13] 36.2 µM | [14] 21.7 µM | [15] 38 µM | [16] 27.8 µM | [17] 17.4 µM | [18] 30.3 µM | [19] 27.5 µM

O=C(O)CC(NC(=O)CP(=O)(O)O)C(=O)O (stereo unspecified)
inactive: [1] 40 µM | [2] 47.4 µM | [3] 558 µM | [4] 933 µM | [5] 313 µM | [6] 52.5 µM | [7] 381 µM | [8] 37.6 µM | [9] 221 µM | [20] 2360 µM | [10] 2800 µM | [11] 1650 µM | [12] 2180 µM | [13] 149 µM | [14] 244 µM | [17] 1290 µM | [18] 71.9 µM | [19] 690 µM

COc1ccc2c(O)c(Oc3ccc(Cl)cc3)c(=O)oc2c1
inactive: [1] > 100 µM | [2] > 100 µM | [4] 90.4 µM | [5] > 100 µM | [6] > 100 µM | [7] > 100 µM | [9] > 100 µM | [20] 60.7 µM | [10] > 100 µM | [11] > 100 µM | [12] > 100 µM | [13] > 100 µM | [14] > 100 µM | [15] > 100 µM | [16] > 100 µM | [17] 55.6 µM | [18] 53.5 µM | [19] 27.5 µM

C(=C\N1CCCCC1)/c1nnnn1-c1ccccc1
inactive: [1] 43.8 µM | [2] > 100 µM | [3] > 100 µM | [4] > 100 µM | [5] 54 µM | [6] 17.6 µM | [8] 22.2 µM | [9] 32.3 µM | [20] 55.5 µM | [10] 25.2 µM | [11] 47 µM | [12] 33.4 µM | [13] 26.4 µM | [14] 21.1 µM | [15] 44.7 µM | [16] 23.4 µM | [17] 13.5 µM | [18] 21.1 µM | [19] 30 µM

NC1=Nc2ncccc2C(=O)NN1
inactive: [1] > 10 µM | [2] > 10 µM | [4] > 10 µM | [5] > 10 µM | [6] > 10 µM | [7] > 10 µM | [8] > 10 µM | [9] > 10 µM | [20] > 10 µM | [10] > 10 µM | [13] > 10 µM | [14] > 10 µM | [15] > 10 µM | [16] > 10 µM | [17] > 10 µM | [18] > 10 µM | [19] > 10 µM

CC[C@@]1(C[C@H]2C[C@@]3(C(=O)OC)c4[nH]c5ccccc5c4CCN3C2=O)COC2(CCCCC2)O1
inactive: [1] 39.9 µM | [2] 24.5 µM | [3] 34.4 µM | [4] 41.8 µM | [5] 22.3 µM | [6] 32.8 µM | [7] 25.5 µM | [9] 43.2 µM | [20] 55.3 µM | [10] 24.2 µM | [11] 37.1 µM | [12] 58.2 µM | [13] 43.3 µM | [16] 31.3 µM | [17] 29.3 µM | [19] 18.1 µM

CC(C)(C)OC(=O)N/N=C(/N)c1ccccc1
inactive: [1] > 100 µM | [2] > 100 µM | [3] > 100 µM | [4] > 100 µM | [5] > 100 µM | [6] > 100 µM | [7] > 100 µM | [8] > 100 µM | [9] > 100 µM | [20] > 100 µM | [10] > 100 µM | [11] > 100 µM | [12] > 100 µM | [13] > 100 µM | [14] > 100 µM | [15] > 100 µM | [17] > 100 µM | [18] > 100 µM | [19] > 100 µM

Oc1ccccc1CNCc1ccccc1O
inactive: [1] > 100 µM | [2] > 100 µM | [3] 34 µM | [4] > 100 µM | [5] > 100 µM | [6] 65.2 µM | [7] > 100 µM | [8] 54.3 µM | [9] 39.8 µM | [20] > 100 µM | [10] > 100 µM | [11] > 100 µM | [12] > 100 µM | [13] > 100 µM | [14] 32.7 µM | [15] > 100 µM | [17] > 100 µM | [18] > 100 µM | [19] 90.2 µM

Cc1[nH]c2ncn(/N=C/c3ccccc3)c(=N)c2c1Cc1ccccc1
inactive: [1] > 100 µM | [2] > 100 µM | [3] > 100 µM | [4] > 100 µM | [5] > 100 µM | [6] 89.9 µM | [7] 79.6 µM | [8] 84.1 µM | [9] 55.1 µM | [10] > 100 µM | [12] > 100 µM | [13] > 100 µM | [14] > 100 µM | [15] > 100 µM | [17] > 100 µM | [18] 98.6 µM | [19] > 100 µM
